Experimental data published in patent publication US20170174633A1 (RESEARCH TRIANGLE INSTITUTE, priority 2014, published 2017).
Several values for one entry are separate records, joined by “and”; a condition that tells them apart may be missing. Identical values can stand only once.

How the values were obtained:
rNTS2 receptor [1] = biological target: T1, rNTS2 receptor (Rattus norvegicus, UniProt Q63384); experiment: Calcium mobilization assay for NTS2 receptor (FLIPR Tetra); format: cell-based; settings: for NTS2 Emax % of 5b / EC50: FLIPR assay, ± SEM; for NTS2 Emax % of 5b: calcium release relative to 5b; for EC50: compound induced calcium release, CHO-kl-rNTS2 cells; for activity in NTS2 FLIPR assay: calcium release
T1 construct: expressed in transfected cells
T1 sequence (Q63384 1-416): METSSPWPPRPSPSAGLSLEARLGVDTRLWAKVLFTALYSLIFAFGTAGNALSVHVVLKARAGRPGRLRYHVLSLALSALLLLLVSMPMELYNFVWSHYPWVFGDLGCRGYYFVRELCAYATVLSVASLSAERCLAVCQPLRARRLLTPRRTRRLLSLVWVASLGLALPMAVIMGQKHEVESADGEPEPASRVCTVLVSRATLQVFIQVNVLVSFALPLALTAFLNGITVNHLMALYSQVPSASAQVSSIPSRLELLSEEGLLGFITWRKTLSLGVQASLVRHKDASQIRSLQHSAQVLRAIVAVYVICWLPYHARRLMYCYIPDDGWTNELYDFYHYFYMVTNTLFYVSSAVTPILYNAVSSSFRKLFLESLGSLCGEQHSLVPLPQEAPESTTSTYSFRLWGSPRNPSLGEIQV
Description: (§1) The binding affinities of the test compounds for the rNTS1 and rNTS2 receptors listed in Tables 1 through 4 were determined using previously reported competitive binding assays^49. […] The cells used in the binding assay were CHO-kl cells (American Type Culture Collection) engineered to over-express either the rNTS1 or rNTS2 receptor. Measures of functional agonism and antagonism were obtained by measuring changes in intensity of a calcium-sensitive fluorescent dye as an indirect measure of changes in internal calcium concentrations. These measurements were performed using a FLIPR Tetra (NTS2) or a FlexStation II plate reader for NTS1 (Molecular Devices) and were analyzed using GraphPad Prism software.
CHO-kl-rNTS2 cells were maintained in DMEM/F12 supplemented with 10% FBS, pen/strep, 100 μg/ml normocin, and 400 μg/ml geneticin. For calcium mobilization assays, cells were plated at 25,000 cells/well in black, clear-bottom 96-well plates 24 hrs before the assay and incubated at 37° C., 5% CO2. 100 μl reconstituted Calcium 5 dye (Molecular Devices, diluted 1:20 in assay buffer (1×HBSS, 20 mM HEPES, 2.5 mM Probenicid, pH 7.4)) was added per well and plates were incubated for 45 min at 37° C., 5% CO2. […] Full-log serial dilutions of the test compounds were made at 10× the desired final concentration in 1% DMSO assay buffer and warmed to 37° C. After the pre-treatment incubation, fluorescence intensity was measured on a FLIPR Tetra fluorometric imaging plate reader (Molecular Devices). Relative Fluorescence Units (RFUs) were measured every second for 100 seconds (14 readings before compound addition to establish baseline fluorescence, 85 after) Exposure time 0.53 s, Gain=2000, Excitation intensity=30%, Gate open=10%. For antagonist assays, 1/10 volume of 10×concentration of the test compound dilutions in 10% DMSO in assay buffer was added to cells in lieu of the 10% DMSO only in assay buffer for the pre-treatment.
(§2) To determine EC50, IC50, and Ke values, data were fit to a three-parameter logistic equation using GraphPad Prism software. Ki values for radioligand binding assays were determined from ICso values using the equation of Cheng and Prusoff. All data are from at least three independent experiments run in duplicate wells.

rNTS1 receptor = biological target: T2, rNTS1 receptor (Rattus norvegicus, UniProt P20789); experiment: Calcium mobilization assay for NTS1 receptor (FLIPR assay, FlexStation II); format: cell-based; settings: for Kb: read-out: NTS1 Ke
T2 construct: expressed in transfected cells
T2 sequence (P20789 whole entry): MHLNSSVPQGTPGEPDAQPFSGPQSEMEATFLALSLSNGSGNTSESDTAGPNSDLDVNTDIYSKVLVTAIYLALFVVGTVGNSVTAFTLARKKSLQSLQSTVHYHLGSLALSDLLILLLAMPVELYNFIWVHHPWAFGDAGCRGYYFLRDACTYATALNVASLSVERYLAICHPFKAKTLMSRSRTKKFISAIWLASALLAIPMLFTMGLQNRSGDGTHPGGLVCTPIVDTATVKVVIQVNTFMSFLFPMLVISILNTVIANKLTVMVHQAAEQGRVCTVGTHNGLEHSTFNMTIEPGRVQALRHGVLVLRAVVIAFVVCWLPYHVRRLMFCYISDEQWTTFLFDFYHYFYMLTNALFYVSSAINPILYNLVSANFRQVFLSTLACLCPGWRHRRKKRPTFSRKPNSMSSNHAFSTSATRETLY
Description: as §1
CHO-kl-rNTS1 cells were maintained in DMEM/F12 medium supplemented with 10% fetal bovine serum (Gibco), 100 U/ml penicillin/100 ug/ml streptomycin, 100 ug/ml normocin (Invivogen), and 250 ug/ml geneticin. For calcium mobilization assays, cells were plated at 30,000 cells/well in black, clear-bottom 96-well plates 24 hrs before the assay and incubated at 37° C., 5% CO2. Prior to the assay, Calcium 5 dye (Molecular Devices) was reconstituted according to manufacturer instructions. The reconstituted dye was diluted 1:40 in assay buffer (lx HBSS, 20 mM HEPES, and 2.5 mM Probenicid (Sigma), pH 7.4). Growth media was removed and 200 ul of this diluted dye was added to each well. Plates were incubated for 45 min at 37° C., 5% CO2 after dye addition. […] Full-log serial dilutions of the test compounds were made at 10× the desired final concentration in 1% DMSO assay buffer and warmed to 37° C. After the pre-treatment incubation, fluorescence intensity was measured on a FlexStation II fluorometric imaging plate reader (Molecular Devices). Relative fluorescence units (RFU) were measured before (20 readings) and after (40 readings) the agonist compound addition for a total 60 second read time (Excitation=485 nm, Emission=525 nm, cutoff=515 nm). For antagonist assays, cells were treated with Calcium dye for 45 min at 37° C., 5% CO2 as with the agonist assays. Then the test antagonist compounds were added in 1% DMSO in assay buffer and the plate was incubated for 15 min at 37° C., 5% CO2.
as §2

rNTS2 receptor [2] = biological target: T1, rNTS2 receptor; experiment: 125I-NT competitive binding assay, whole CHO-kl cells over-expressing rNTS2; settings: competition with 125I-NT; ± SEM; read-out: 125I-NT Binding NTS2 Ki
Description: as §1
Briefly, cells were plated at 100,000 cells/well in 24-well plates in complete DMEM/F12 medium supplemented with 10% fetal bovine serum, 100 units of penicillin/mL, 100 μg of streptomycin/mL, 0.1 mg/mL of normocin, and 250 μg/mL geneticin. Cells were incubated at 37° C. with 5% CO2 and 95% humidity for 48 hrs. […] Cells were washed twice in Earle's buffer, extracted in 1 ml 0.1N NaOH and counted in a Packard Cobra II Gamma Counter for 1 minute.
as §2

[3] = antagonism of NT induced calcium release, ± SEM

Row | SMILES | NTS2 Emax % of 5b (rNTS2 receptor [1]) | NTS1 Ke (rNTS1 receptor; [3]) [nM] | Kb (rNTS1 receptor; [3]) [nM] | EC50 (rNTS2 receptor [1]) [nM] | EC80 of 5b (rNTS2 receptor [1]; final concentration used in IC50 assays) [nM] | Ki (rNTS2 receptor [2]) [nM] | activity in NTS2 FLIPR assay (rNTS2 receptor [1]) | activity in NTS1 FLIPR assay (rNTS1 receptor; agonist and antagonist mode versus NT)
1 | COc1cccc(OC)c1-c1cc(C(=O)NC2(C(=O)O)C3CC4CC(C3)CC2C4)nn1-c1ccnc2cc(Cl)ccc12 (centres unmarked) [5a, Meclinertant, reference compound] | 100 % of 5b and 100 ± 3 % of 5b and 100 ± 15 % of 5b | – | – | – | – | – | – | –
2 | COc1cccc(OC)c1-c1cc(C(=O)NC2(C(=O)O)C3CC4CC(C3)CC2C4)nn1-c1ccc(C(=O)N(C)CCCN(C)C)cc1C(C)C (centres unmarked) [5b, reference compound] | 100 ± 5 % of 5b | 1.5 ± 0.6 | 1.5 | 20 | 73 | 6 | – | –
3 | COc1cccc(OC)c1-c1cc(C(=O)N[C@H](C(=O)O)C2CCCCC2)nn1-c1ccnc2cc(Cl)ccc12 [14b, (2S)-({[1-(7-Chloroquinolin-4-yl)-5-(2,6-dimethoxyphenyl)-1H-pyrazol-3-yl]carbonyl}amino)-(cyclohexyl)ethanoic Acid] | 86 % of 5b and 86 ± 3 % of 5b | – | 23 ± 6 | 217 ± 19 | – | 644 | – | –
4 | COc1ccc(OC)c(-c2cc(C(=O)N[C@H](C(=O)O)C3CCCCC3)nn2-c2ccnc3cc(Cl)ccc23)c1 [15b, (2S)-({[1-(7-chloroquinolin-4-yl)-5-(2,5-dimethoxyphenyl)-1H-pyrazol-3-yl]carbonyl}amino) (cyclohexyl)ethanoic acid] | 19 ± 3 % of 5b | – | 1280 ± 544 | 216 ± 29 | – | 604 ± 141 | – | –
5 | COc1ccc(-c2cc(C(=O)N[C@H](C(=O)O)C3CCCCC3)nn2-c2ccnc3cc(Cl)ccc23)c(OC)c1 [16b, (2S)-({[1-(7-Chloroquinolin-4-yl)-5-(2,4-dimethoxyphenyl)-1H-pyrazol-3-yl]carbonyl}-amino)-(cyclohexyl)ethanoic Acid] | 12 ± 3 % of 5b | – | – | 382 ± 33 | – | 1580 ± 505 | – | –
6 | COc1ccccc1-c1cc(C(=O)N[C@H](C(=O)O)C2CCCCC2)nn1-c1ccnc2cc(Cl)ccc12 [17b, (2S)-({[1-(7-chloroquinolin-4-yl)-5-(2-methoxyphenyl)-1H-pyrazol-3-yl]carbonyl}amino)(cyclohexyl) ethanoic acid] | 25 ± 2 % of 5b | – | 1680 ± 527 | 258 ± 14 | – | 1420 ± 468 | – | –
7 | O=C(N[C@H](C(=O)O)C1CCCCC1)c1cc(-c2c(F)cccc2F)n(-c2ccnc3cc(Cl)ccc23)n1 [18b, (2S)-({[1-(7-Chloroquinolin-4-yl)-5-(2,6-difluorophenyl)-1H-pyrazol-3-yl]carbonyl}amino) (cyclohexyl)ethanoic Acid] | 15 ± 3 % of 5b | – | – | 166 ± 3 | – | 1000 ± 227 | – | –
8 | CCc1c(C(=O)N[C@H](C(=O)O)C2CCCCC2)nn(-c2ccnc3cc(Cl)ccc23)c1-c1c(OC)cccc1OC [19b, (2S)-({[1-(7-Chloroquinolin-4-yl)-5-(2,6-dimethoxyphenyl)-4-ethyl-1H-pyrazol-3-yl]carbonyl}amino)(cyclohexyl)ethanoic Acid] | 15 % of 5b and 15 ± 1 % of 5b | – | – | – | – | – | – | –
9 | COc1cccc(OC)c1-c1cc(C(=O)NC2(C(=O)O)CCCCCC2)nn1-c1ccnc2cc(Cl)ccc12 [20b, 1-({[1-(7-Chloroquinolin-4-yl)-5-(2,6-dimethoxyphenyl)-1H-pyrazol-3-yl]carbonyl}amino)cyclo-heptanecarboxylic Acid] | 89 ± 5 % of 5b | – | 42 ± 6 | 21 ± 5 | – | 170 | – | –
10 | COc1cccc(OC)c1-c1cc(C(=O)NC2(C(=O)O)CCCCC2)nn1-c1ccnc2cc(Cl)ccc12 [21b, 1-({[1-(7-Chloroquinolin-4-yl)-5-(2,6-dimethoxyphenyl)-1H-pyrazol-3-yl]carbonyl}amino)cyclo-hexanecarboxylic Acid] | 78 % of 5b and 78 ± 7 % of 5b | – | 157 ± 45 | 29 ± 2 | – | 151 | – | –
11 | COc1cccc(OC)c1-c1cc(C(=O)NC2(C(=O)O)CCCC2)nn1-c1ccnc2cc(Cl)ccc12 [22b, 1-({[1-(7-Chloroquinolin-4-yl)-5-(2,6-dimethoxyphenyl)-1H-pyrazol-3-yl]carbonyl}amino)cyclo-pentanecarboxylic Acid] | 76 ± 4 % of 5b | – | 222 ± 14 | 20 ± 4 | – | 102 | – | –
12 | COc1ccccc1-c1cc(C(=O)NC2(C(=O)O)CCCCC2)nn1-c1ccnc2cc(Cl)ccc12 [23b, 1-({[1-(7-Chloroquinolin-4-yl)-5-(2-methoxyphenyl)-1H-pyrazol-3-yl]carbonyl}amino)cyclohexane carboxylic Acid] | 35 % of 5b and 35 ± 1 % of 5b | – | 4550 ± 636 | 62 ± 9 | – | 533 ± 153 | – | –
13 | COc1cccc(OC)c1-c1cc(C(=O)N[C@H](C(=O)O)C2CCCCC2)nn1-c1cccc2ccccc12 [24b, (2S)-Cyclohexyl({[5-(2,6-dimethoxyphenyl)-1-naphthalen-1-yl-1H-pyrazol-3-yl]carbonyl}amino)-ethanoic Acid] | 45 % of 5b and 45 ± 1 % of 5b | – | 58 ± 6 | 159 ± 9 | – | 536 ± 20 | – | –
14 | COc1ccccc1-c1cc(C(=O)N[C@H](C(=O)O)C2CCCCC2)nn1-c1cccc2ccccc12 [25b, (2S)-Cyclohexyl({[5-(2-methoxyphenyl)-1-naphthalen-1-yl-1H-pyrazol-3-yl]carbonyl}amino) ethanoic Acid] | 18 ± 2 % of 5b | – | 1400 ± 330 | 229 ± 8 | – | 2690 ± 639 | – | –
15 | CC[C@H](C)[C@H](NC(=O)[C@H](Cc1ccc(O)cc1)NC(=O)[C@@H]1CCCN1C(=O)[C@H](CCCNC(=N)N)NC(=O)[C@@H](N)CCCNC(=N)N)C(=O)N[C@@H](CC(C)C)C(=O)O [compound 1, Arg-Arg-Pro-Tyr-Ile-Leu, reference compound] | – | – | – | – | – | – | neither NT nor the NT(8-13) fragment (1) showed any calcium release | –
16 | COc1cccc(OC)c1-c1cc(C(=O)NC2C3CC4CC(C3)CC2C4)nn1-c1ccnc2cc(Cl)ccc12 (centres unmarked) [compound 13, 1-(7-chloroquinolin-4-yl)-5-(2,6-dimethoxyphenyl)-N-tricyclo[3.3.1.13,7]dec-2-yl-1H-pyrazole-3-carboxamide] | – | – | – | – | – | – | inactive | inactive
